The record followed here is patent publication US4407794A, “Peptides and therapeutic applications thereof” (Centre National de la Recherche Scientifique (CNRS), priority 1980, dated 1983).

Peptide text beside a SMILES is read from it.

Data set [1] relates to rats. Nature of the data set: Anti-diarrhea action, castor oil test. Type of data set: in vivo. To be noted: 10 rats, one hour prior to castor oil. Here is the method:
This action was investigated by the castor oil test in rats, using the method according to Niemegeers and co-workers (Arzn.-Forsch. 22, 516-518, 1972).
The tests were conducted with male rats of 160-220 g body weight. After an 18 hr fasting period, each animal was orally administered 1 ml castor oil.
The test compounds, dissolved in water, were administered orally under a volume of 0.5 ml per 100 g body weight, one hour prior to the castor oil administration.

The test system of data set [2] is rats. Kind of data set: Naxolone susceptibility test, appearance of dependence (abstinence jumps). Format: in vivo. Conditions: 25 mg/kg 4 times a day for 10 days, Naxolone 10 mg/kg s.c. on the 10th day. How it is done:
This test makes it possible to evaluate the dependence induced by chronic administration of morphinic analgesics. It comprises inducing the dependence condition after 10 days of treatment by injection of a high doage of an antagonist: naxolone. Compound 1 was tested by ICV administration in rats, using the technique according to Frederickson et al., Res. Common.Pathol.Pharmacol. 5, 867(1973).
The results obtained are set forth in Table IV below and are compared with those obtained with morphine.

Another data set deals with μ receptors (Cavia porcellus, UniProt P97266). Nature of the data set: Inhibition of the contraction of the isolated guinea-pig ileum induced by coaxial stimulation. Type of data set: cell-based, guinea-pigs. Conditions: for ILEUM Relative action: % activity with respect to Met-Enkephalin=100; for IC50: isolated guinea-pig ileum, coaxial stimulation, number of experiments in parentheses, read-out: ILEUM IC 50. Here is the method: (§1) The study of the action on μ receptors or on σ receptors was conducted as a function of the effect on the isolated ileum of guinea-pigs or on the vas deferens of mice.
Chain of μ receptors (P97266 whole entry, looked up): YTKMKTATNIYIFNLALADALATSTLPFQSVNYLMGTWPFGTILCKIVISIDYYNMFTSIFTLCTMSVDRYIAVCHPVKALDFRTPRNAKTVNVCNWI
The action on the μ receptors was determined by the measure of the 50% inhibiting concentration (IC 50) of the contraction of the isolated ileum of guinea-pigs, induced by coaxial stimulation (PATON W.D.M., Brit.J. Pharm. 1959, 12, 119).
The 50% inhibiting concentrations are expressed as nanomolar/liter concentrations. Each product is tested with respect to Met-Enkephalin as reference material and the results obtained are also expressed as % activity with respect to Met-Enkephalin=100.
(§2) The ratio [formula] makes it possible to find out whether the test material is […] σ- specific. In said Table, the number of experiments is indicated between parentheses.

The test system of data set [3] is rats. Kind of data set: Locomotor activity after i.v. administration. Format: in vivo. To be noted: 5 mg/kg i.v., male rats, group of 10; saline reference group 100 ± 15%. How it is done: This preferential effect of δ-specific compound I on the dopaminergic receptors may be evidenced by i.v. administration of compound I and determination of the locomotor activity according to STINUS et al. Proc.Natl. Acad.Sci.USA 77, 2302 (1980). Each experiment was conducted on a group of 10 animals (male rats weighing 200-250 g) and the results obtained were compared with those of a reference group.

Data set [4] is classed as cell-based, mice. Conditions: mouse vas deferens, electric stimulation; number of experiments in parentheses; read-out: VAS DEFERENS IC 50. How it is done:
as §1
(§3) The action on the σ receptors was determined by the measure of the 50% inhibiting concentration (IC 50) of the contraction of the vas deferens of mice, induced by electric stimulation.
(§4) The 50% inhibiting concentrations are expressed as nanomolar/liter concentrations.
as §2

Another data set deals with σ receptors. Format: cell-based, mice. To be noted: for VAS DEFERENS Relative action: % activity with respect to Met-Enkephalin=100; for R IC 50 ileum / IC 50 V.D.: ratio of ileum (μ) IC50 to vas deferens IC50. Here is the method:
as §1, §3, §4, §2

The next data set has as its system mice. Kind of data set: Analgesic activity, hot-plate (65° C.) test, i.v. Format: in vivo. Conditions: for Reaction time (s) 15' Licking: 15 minutes; for Reaction time (s) 30' Leap: 30 minutes; for Reaction time (s) 60' Adjusted jump: 60 minutes; for Reaction time (s) 90' Adjusted jump: 90 minutes. Here is the method: The compounds were tested in vivo by the intravenous route (i.v.) in mice, using the hot-plate (65° C.) test in mice, according to the method disclosed by JACOB & BLOZOVSKI (Arch.Int.Pharmacodyn. 1961, 33,296) by determination of the licking reflex at 15 minutes, of the leap at 30 minutes and of the adjusted jump at 60 and 90 minutes.
DAla2 Met-Enkephalin was used as reference material.

In a further data set the test system is liberation of dopamine. Nature of the data set: Spontaneous liberation of dopamine, ICV injection tests. Type of data set: in vivo.

On to `COc1ccc2c3c1O[C@H]1[C@@H](O)C=C[C@H]4[C@@H](C2)N(C)CC[C@@]341` [Codein base], for which, in the data set on rats [1] (3 mg/kg orally), the “Number of non-diarrheic animals 2 hours” value was 7 and the “Number of non-diarrheic animals 4 hours” value is given as 4. In the data set on rats [1] (10 mg/kg orally), the “Number of non-diarrheic animals 2 hours” value amounted to 10 and the “Number of non-diarrheic animals 4 hours” value is 7.
As to `CC(C)C[C@H](NC(=O)[C@H](Cc1ccccc1)NC(=O)CNC(=O)[C@@H](CO)NC(=O)[C@@H](N)Cc1ccc(O)cc1)C(=O)N[C@H](C(=O)O)[C@@H](C)O` [Example 1, TyrD.SerGlyPheLeuThr], the “Abstinence test (jumps)” value in the data set with rats [2] is 10 ± 2 jumps. For the same molecule, on μ receptors, the “ILEUM Relative action” value is 55% and the IC50 was found to be 637 nM. Further, the Locomotor activity in the data set on rats [3] was 65 ± 10%. The IC50 in data set [4] came to 0.8 nM. In addition, in the data set on σ receptors, the “VAS DEFERENS Relative action” value came out at 2250% and the “R IC 50 ileum / IC 50 V.D.” value is given as 796. Also, in the data set on mice (35 mg/kg i.v.), the “Reaction time (s) 15' Licking” value is on record as 29.4 ± 3.2 s, the “Reaction time (s) 30' Leap” value came to 30.1 ± 5.7 s, the “Reaction time (s) 60' Adjusted jump” value is recorded as 28.6 ± 7.2 s and the “Reaction time (s) 90' Adjusted jump” value came to 32.2 ± 9.2 s. The “Increase of spontaneous liberation of dopamine” value (shortened to “Increase”) in the data set on liberation of dopamine (5×10^-8 M) was determined as 100%.
Regarding `CC(C)C[C@H](NC(=O)[C@H](Cc1ccccc1)NC(=O)CNC(=O)[C@@H](C)NC(=O)[C@@H](N)Cc1ccc(O)cc1)C(=O)N[C@H](C(=O)O)[C@@H](C)O` [Example 2, TyrD.AlaGlyPheLeuThr] (HELM PEPTIDE1{Y.[dA].G.F.L.T}$$$$V2.0), the IC50 at μ receptors amounted to 500 nM.
Consider `CSCC[C@H](NC(=O)[C@H](Cc1ccccc1)NC(=O)CNC(=O)[C@@H](C)NC(=O)[C@@H](N)Cc1ccc(O)cc1)C(=O)NCCCCCNS(=O)(=O)c1cccc2c(N(C)C)cccc12` [Example 13 of patent FR 78 12 543], for which the “ILEUM Relative action” value at μ receptors came out at 110%. In data set [4], the IC50 was determined as 650 nM. In the data set on σ receptors, the “VAS DEFERENS Relative action” value is 2.7% and the “R IC 50 ileum / IC 50 V.D.” value is reported as 0.49.
On to `CCCC[C@H](NC(=O)[C@H](Cc1ccccc1)NC(=O)CNC(=O)[C@@H](CO)NC(=O)[C@@H](N)Cc1ccc(O)cc1)C(=O)N[C@H](C(=O)O)[C@@H](C)O` [Example 25, TyrD.SerGlyPheN.LeuThr], for which the IC50 at μ receptors was 1050 nM.
Still for that read-out and setting: in the case of `CC(C)C[C@@H](NC(=O)[C@H](Cc1ccccc1)NC(=O)CNC(=O)[C@@H](CO)NC(=O)[C@@H](N)Cc1ccc(O)cc1)C(=O)O` [Example 45, TyrD.SerGlyPheD.Leu] (HELM PEPTIDE1{Y.[dS].G.F.[dL]}$$$$V2.0) it was 247 nM.
As to `CSCC[C@H](NC(=O)[C@H](Cc1ccccc1)NC(=O)CNC(=O)CNC(=O)[C@@H](N)Cc1ccc(O)cc1)C(=O)O` [Met-Enkephalin], on μ receptors, the “ILEUM Relative action” value is listed as 100% and the IC50 was 354 nM. In data set [4], the IC50 came to […]. Besides, in the data set with σ receptors, the “VAS DEFERENS Relative action” value is reported as 100% and the “R IC 50 ileum / IC 50 V.D.” value was found to be […].
For the molecule `CN1CC[C@]23c4c5ccc(O)c4O[C@H]2[C@@H](O)C=C[C@H]3[C@H]1C5.Cl` [Morphin (hydrochloride)], in the data set on rats [1] (1 mg/kg orally), the “Number of non-diarrheic animals 2 hours” value was 9 and the “Number of non-diarrheic animals 4 hours” value is listed as 4. For the same molecule, in the data set on rats [1] (3 mg/kg orally), the “Number of non-diarrheic animals 2 hours” value was 10 and the “Number of non-diarrheic animals 4 hours” value is 6.
Consider `CN1CC[C@]23c4c5ccc(O)c4O[C@H]2[C@@H](O)C=C[C@H]3[C@H]1C5` [Morphin, morphine], for which, in the data set on rats [2], the “Abstinence test (jumps)” value came to 74 ± 11 jumps. Besides, the “Increase” value with liberation of dopamine (10^-6 M) amounted to 50%.
For the molecule D.Ala2 Met-Enkephalin, in the data set on mice (100 mg/kg i.v.), the “Reaction time (s) 15' Licking” value turned out to be 5.5 ± 1 s, the “Reaction time (s) 30' Leap” value came to 5.5 ± 1.6 s, the “Reaction time (s) 60' Adjusted jump” value is 5.5 ± 1.2 s and the “Reaction time (s) 90' Adjusted jump” value came to 5.6 ± 2 s.
As to DAla^2 Met.Enkamide, in the data set on liberation of dopamine (10^-6 M), the “Increase” value was found to be 100%.
